Experimental data reported in US20160168140A1, “HETEROCYCLIC COMPOUNDS AS ANTIBIOTIC POTENTIATORS” (priority 2014, published 2016).

Experiments:
[1] = target: T1, E. coli RecA (Escherichia coli, UniProt P0A7G6); assay: RecA ssDNA-dependent ATPase assay (coupled enzyme, amplex red fluorescence); assay type: biochemical; conditions: read-out: RecA Inhibition IC50
T1 construct: purchased New England BioLabs
Procedure: A coupled enzyme ATPase assay, similar to that described in Wigle and Singleton, BioorgMed Chem Lett. 17(12):3249-53 (2007), was used to screen compounds for in vitro activity against RecA. A solution of the compound to be tested dissolved in DMSO (5 μL of 20× concentrated stock) was added to 90 μL of a master mix containing the following components at their final concentrations in the appropriate wells of flat-bottomed black 96-well plates (Corning Life Sciences, Corning N.Y.) at 37° C.: 0.5 μM E. coli RecA (New England BioLabs), 10 mM Mg(OAc)2 (Sigma, St. Louis, Mo.), 500 μM ATP (Sigma), 250 μM phosphoenolpyruvate (Sigma), 100 μM amplex red (Invitrogen, Carlsbad, Calif.), 1 U/mL pyruvate kinase (Sigma), 1 U/mL pyruvate oxidase (Thermo Fisher Scientific, Waltham, Mass.), 1 U/mL horseradish peroxidase (Sigma), and 20 mM Tris*HOAc, pH 7.5 (Boston BioProducts, Ashland, Mass.). The total volume of the assay solution was 100 μL. […]
The fluorescence emission at 595 nm (excitation at 485 nm) was then recorded using a microplate reader (PolarStar Optima, BMG Labtech, Ortenberg, Germany) for approximately 25 min to establish the baseline fluorescence.
To initiate the reactions, poly(dT) (5 μL of a 100 μM-nts stock solution) was added to each well to give a final DNA concentration of 5 μM-nts. Fluorescence emission was recorded for an additional 90 min. […]

[2] = test system: SOS response (sulAp-lacZ reporter) in E. coli strain DM4000; assay: Ciprofloxacin-induced SOS reporter gene expression assay (sulAp-lacZ, Beta-Glo luminescence, with or without PMBN); assay type: cell-based; conditions: Escherichia coli; in the presence of PMBN (4 μg/mL); read-out: SOS Attenuation EC50
Text: An SOS reporter gene assay was used to assess the ability of the RecA inhibitor compounds to block the SOS response to ciprofloxacin. Details of the testing methodology are provided in, for example, Sandler et al., Genetics 143(1):5-13 (1996) and McCool et al., Mol Microbiol. 53(5):1343-57 (2004). The SOS genes are regulated by the transcriptional repressor LexA and the DNA-binding protein RecA. When DNA damage occurs, RecA binds to ssDNA, and this protein-DNA complex then induces the autocleavage of LexA, resulting in the depression of LexA-bound promoters. […] Therefore, a reporter construct wherein the sulA promoter (sulAp) is fused to the lacZ gene can be used to measure the level of the SOS response in cells using an assay for β-galactosidase activity.
E. coli strain DM4000 contains the sulAp-lacZ reporter gene inserted at the X attachment site. Two additional strains containing the same sulAp-lacZ reporter gene were used as RecA-independent controls in this assay. JC19098 encodes an un-cleaveable LexA repressor; therefore, the sulA promoter-dependent β-galactosidase expression is always off. […]
Luminescence was measured on a plate reader with the gain adjustment set to 40% of the maximum on a well with one of the highest luminescence values on the plate (e.g., a well containing ciprofloxacin without inhibitor). […]

[3] = test system: Acinetobacter baumannii (Ab23); assay: MIC shift assay of antibiotics (broth microdilution); assay type: cell-based; conditions: Acinetobacter baumannii (Ab23); compound concentration 10 μM; MIC of colistin alone >8.0 μg/mL
Procedure, shortened: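 Broth microdilution MIC shift assay against Acinetobacter baumannii. Overnight cultures in cation-adjusted Mueller Hinton broth at 37° C. were sub-cultured 1:200, grown to OD600=0.5 to 0.8, diluted to OD600=0.01, and added (50 μL) to wells holding 50 μL of 2× antibiotic stocks for a starting OD600 of 0.005. After 18 to 20 h at 37° C. with shaking, OD600 was read to obtain MICs.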

[4] = test system: E. coli; assay: as above; assay type: cell-based; conditions: E. coli (SCR1); compound concentration 10 μM; MIC of colistin alone 0.5-1.0 μg/mL
Procedure: Minimum inhibitory concentration (MIC) shift assays were performed to determine if the test compounds could alter the MIC of existing antibacterial drugs (e.g., ciprofloxacin and colistin) for E. coli, Acinetobacter baumannii, Klebsiella pneumoniae, Pseudomonas aeruginosa, and Enterobacter cloacae. The MIC shift assay is based on the standard broth microdilution MIC determination protocol of Wiegand et al, Nat Protoc. 3(2):163-75 (2008), with slight modifications that allow for the screening of up to seven test compounds in a single plate.
On the day before an assay, bacteria were grown overnight in cation-adjusted Mueller Hinton broth (CAMHB; Teknova, Hollister, Calif.) at 37° C. in an orbital shaker and sub-cultured at a 1:200 dilution the following morning. The cells were grown to OD600=0.5 to 0.8 and then diluted to OD600=0.01. From a serial dilution of each antibiotic at (50 μL of 2× concentrated stock solutions) several concentrations were added to the wells of a sterile, transparent round-bottom 96-well plate (Phenix Research Products, Candler, N.C.), and diluted cells (50 μL) were added to the plates for a starting OD600 of 0.005. Then, a test compound (2.5 μL) was added to each well to give a final concentration of 4 or 10 μM. A row of wells lacking test compound but containing the antibiotic was used to determine the MIC of that antibiotic alone. A column of wells lacking both antibiotic and test compound served as a growth control, and an additional column containing only CAMHB was included as a sterile blank control.
The plates were incubated for 18 to 20 h at 37° C. in an orbital shaker, and the cell density (OD600) was determined the following day in a microplate reader (PolarStar Optima, BMG Labtech). The MIC shift was determined by comparing the MIC of the antibiotic alone to the MIC of the antibiotic plus test compound.

T1 sequence (P0A7G6 2-353): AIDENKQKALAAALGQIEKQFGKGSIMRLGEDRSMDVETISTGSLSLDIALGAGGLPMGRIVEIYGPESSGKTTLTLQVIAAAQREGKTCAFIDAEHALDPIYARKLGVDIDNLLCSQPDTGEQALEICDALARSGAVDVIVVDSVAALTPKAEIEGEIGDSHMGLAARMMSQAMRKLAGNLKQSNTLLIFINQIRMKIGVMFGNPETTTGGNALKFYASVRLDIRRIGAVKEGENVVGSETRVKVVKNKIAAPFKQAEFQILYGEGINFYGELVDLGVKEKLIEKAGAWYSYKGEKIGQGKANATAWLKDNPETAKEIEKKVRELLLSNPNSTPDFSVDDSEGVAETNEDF

Row | SMILES | IC50 [1] [µM] | EC50 [2] [µM] | Colistin MIC Shift [3] [X] | Colistin MIC Shift [4]
1 | CN(C)CCCNc1nc(/C=C/c2ccc(Cl)c(Cl)c2)nc2c(C(F)(F)F)cccc12 [MLJ-02-070A] | 12 | < 6 | >128 | 16-32X
2 | Clc1ccc(/C=C/c2c[nH]c3ccc(Br)cc23)cc1Cl [MLJ-02-086B] | 15 | 8 | >64 | 8-16X
